Experimental data reported in patent US20050165028A1, “Vanilloid receptor ligands and their use in treatments” (priority 2004, published 2005).

melting point: 192 to 195 °C
SMILES: O=C(Nc1ccc2c(c1)OCCO2)c1ccc(-c2cccs2)cc1 [Example 15, N-(2,3-Dihydro-benzo[1,4]dioxin-6-yl)-4-thiophen-2-yl-benzamide]
